Measured values: PMC9743094, “Synthesis and Evaluation of Polymyxins Bearing Reductively Labile Disulfide-Linked Lipids” (Journal of Medicinal Chemistry, 2022)
In brackets after ≈: the same amount, converted by molar mass. Where two headings read alike, the source gives them in different places. Positions of bridges follow the written chain, without caps; N, C: chain ends. Non-standard residues stand in square brackets, D forms with d. Residues, ends and D or L forms follow the SMILES beside them. *: point of attachment. S(3-Methylbutyl) = CC(C)CCS*; Dab = NCC[C@H](N)C(=O)O; X1 = CC(C)CCCCS*

Assays:
A. baumannii BAA-747 = type: cell-based; conditions: BAA-747
Method: (§1) Minimum inhibitory concentrations (MICs) on relevant Gram-negative bacteria were determined by broth microdilution, in accordance with CLSI guidelines. Indicated bacteria were taken from glycerol stocks and incubated overnight on blood agar at 37 °C. Well-isolated colonies were taken, suspended in TSB (5 mL), and grown to an OD600 of 0.5. Compounds to be tested were dissolved in DMSO (6.4 mg/mL), diluted in cation-adjusted Mueller–Hinton Broth (CAMHB) (12.5 and 20 μg/mL Mg^2+ and Ca^2+, respectively), and diluted serially on polypropylene microtiter plates. To the diluted compounds (50 μL per well) was added 50 μL of relevant bacterial suspension, to yield a final concentration of 10^6 CFU/mL. Plates were covered by adhesive gas-permeable membranes and incubated at 37 °C. MIC was read out as the lowest concentration that inhibited visual bacterial growth. Shown values are consistent results from at least duplicate experiments.
(§2) Bacterial strains used for MIC assays and extended MIC assessment
(§3) Strains: The following strains were obtained from BEI Resources, NIAID, NIH: E. Coli M0072, strain
(§4) Table S2. […] Values are given in μg/mL.
(§5) Species Strain ID Resistance Polymyxin B 18b 23a 24a

P. aeruginosa ATCC 10145 = type: cell-based; conditions: ATCC 10145
Method: as §1, §2, §3, §4, §5

K. pneumoniae ATCC 29665 = type: cell-based; conditions: ATCC 29665
Method: as §1, §2, §3, §4, §5

P. aeruginosa M120 = type: cell-based; conditions: M120
Method: as §1, §2, §3, §4, §5

K. pneumoniae RC0045 = type: cell-based; conditions: RC0045
Method: as §1, §2, §3, §4, §5

P. aeruginosa 2251 = type: cell-based; conditions: 2251
Method: as §1, §2, §3, §4, §5

P. aeruginosa 2018-007 = type: cell-based; conditions: 2018-007
Method: as §1, §2, §3, §4, §5

E. coli JS136 = type: cell-based; conditions: JS136
Method: as §1, §2, §3, §4, §5

K. pneumoniae KP1.53 = type: cell-based; conditions: KP1.53
Method: as §1, §2, §3, §4, §5

E. coli 1793 = type: cell-based; conditions: 1793
Method: as §1, §2, §3, §4, §5

E. coli M0072 = type: cell-based; conditions: M0072
Method: as §1, §2, §3, §4, §5

A. baumannii RUH-134 = type: cell-based; conditions: RUH-134
Method: as §1, §2, §3, §4, §5

A. baumanii (ATCC 17961) = type: cell-based; conditions: ATCC 17961, 2 h
Method: as §1
(§6) Table S3. MIC values [µg/mL] and relative toxicity values for disulfide containing polymyxin derivative 18b and
(§7) non-disulfide containing analogue 45. […]

P. aeruginosa (PAO1) = type: cell-based; conditions: PAO1, 2 h
Method: as §1, §6, §7

[1] = test system: differentiated conditionally immortalized PTECs (ciPTECs, OAT-1); assay: ciPTEC toxicity assay (PrestoBlue); type: cell-based, human
Method: ciPTECs (OAT-1) cells,[52],[53] grown to 90–100% confluence, were washed by Hanks’ balanced salt solution (HBSS; Gibco, Life Technologies, Paisley, U.K.) and detached by accutase (4 mL) for 5 min at 37 °C. The cells were then suspended in fresh medium (DMEM/F-12, supplemented with 10% fetal calf serum, insulin (5 μg/mL), transferrin (5 μg/mL), selenium (5 μg/mL) hydrocortisone (35 ng/mL), Epidermal Growth Factor (10 ng/mL) and tri-iodothyronine (40 pg/mL)). Cell density was adjusted to 2.0 × 10^5 cells/mL, of which 100 μL was added to each well of a 96-well plate. The cells were incubated for 24 h at 33 °C, followed by 6 days at 37 °C, in a humidified atmosphere containing 5% (v/v) CO2. The medium was refreshed every second or third day.
Compounds were dissolved and serially diluted in serum-free medium. Differentiated cells were washed once with HBSS and serially diluted compounds (80 μL/well) were transferred to the ciPTEC-containing plate. Compounds were incubated for 24 h at 37 °C; the cells were washed by HBSS, followed by incubation with 10% PrestoBlue cell viability reagent (Thermo Scientific, Vienna, Austria) in HBSS at 37 °C in the dark. Fluorescence was recorded (excitation: 530 nm, emission: 590 nm). Raw data are corrected for PrestoBlue background fluorescence and reported relative to the no-treatment control (cells with medium only). Viability data were fitted with GraphPad Prism software (version 5.03; GraphPad Software, La Jolla, CA), by nonlinear regression with 0 as bottom constraint. Presented data are based on triplicates.
Toxicity assessment on PTECs
Table S1. TC50 values for polymyxin analogues. Toxicity assessment on proximal tubular epithelial cells
performed using PrestoBlue™ assay. TC50 values are derived after non-linear regression analysis on cell viability
correspond to data obtained from 2 different batches of cells/analyses on different days. As the value for
polymyxin B differs 2-fold, values in the manuscript are presented relative to the polymyxin B value.
Compound TC50 (µ M) Compound TC50 (µ M)
Polymyxin B 80 Polymyxin B 41
Figure S3. Representative traces of ciPTECs’ viability after incubation with analogues for 24 hours. Shown data are based on […]

[2] = test system: P. aeruginosa (ATCC 27853); type: cell-based; conditions: ATCC 27853
Method: as §1

[3] = test system: K. pneumoniae (ATCC 13883); type: cell-based; conditions: ATCC 13883
Method: as §1

[4] = test system: A. baumannii (ATCC 19606); type: cell-based; conditions: ATCC 19606
Method: as §1

E. coli (ATCC 25922) = type: cell-based; conditions: ATCC 25922
Method: as §1

A. baumannii NRZ-00687 = type: cell-based; conditions: NRZ-00687
Method: as §1, §2, §3, §4, §5

SMILES	MIC A. baumannii BAA-747 (A. baumannii BAA-747)	MIC P. aeruginosa ATCC 10145 (P. aeruginosa ATCC 10145)	MIC K. pneumoniae ATCC 29665 (K. pneumoniae ATCC 29665)	MIC P. aeruginosa M120 (P. aeruginosa M120)	MIC K. pneumoniae RC0045 (K. pneumoniae RC0045)	MIC P. aeruginosa 2251 (P. aeruginosa 2251)	MIC P. aeruginosa 2018-007 (P. aeruginosa 2018-007)	MIC E. coli JS136 (E. coli JS136)	MIC K. pneumoniae KP1.53 (K. pneumoniae KP1.53)	MIC E. coli 1793 (E. coli 1793)	MIC E. coli M0072 (E. coli M0072)	MIC A. baumannii RUH-134 (A. baumannii RUH-134)	ciPTEC Toxicity Index (relative to polymyxin B) [1]	other results
CC(C)CCSSC[C@@H](N)C(=O)N[C@H](C(=O)N[C@@H](CCN)C(=O)N[C@H]1CCNC(=O)[C@H]([C@@H](C)O)NC(=O)[C@H](CCN)NC(=O)[C@H](CCN)NC(=O)[C@H](CC(C)C)NC(=O)[C@@H](Cc2ccccc2)NC(=O)[C@H](CCN)NC1=O)[C@@H](C)O [Compound 18b] (H-[dC](S(3-Methylbutyl))T[Dab][Dab][Dab][dF]L[Dab][Dab]T; lactam 4-C)	0.5 mg/L (≈ 0.428 µM)	2 mg/L (≈ 1.71 µM)	0.5 mg/L (≈ 0.428 µM)	2 mg/L (≈ 1.71 µM)	0.5 mg/L (≈ 0.428 µM)	2 mg/L (≈ 1.71 µM)	2 mg/L (≈ 1.71 µM)	0.5 mg/L (≈ 0.428 µM)	1 mg/L (≈ 0.856 µM)	0.25 mg/L (≈ 0.214 µM)	0.5 mg/L (≈ 0.428 µM)	1 mg/L (≈ 0.856 µM)	4.7	MIC A. baumanii (ATCC 17961) (A. baumanii (ATCC 17961)): 0.25 mg/L (≈ 0.214 µM); MIC P. aeruginosa (PAO1) (P. aeruginosa (PAO1)): 1 mg/L (≈ 0.856 µM); TC50, Day 1 [1]: 345 µM; TC50, Day 2 ([1]; 24 h): 192 µM
CC(C)CCCCSSC[C@H](NC(=O)CN)C(=O)N[C@H](C(=O)N[C@@H](CCN)C(=O)N[C@H]1CCNC(=O)[C@H]([C@@H](C)O)NC(=O)[C@H](CCN)NC(=O)[C@H](CCN)NC(=O)[C@H](CC(C)C)NC(=O)[C@@H](Cc2ccccc2)NC(=O)[C@H](CCN)NC1=O)[C@@H](C)O [Compound 24a] (H-GC(X1)T[Dab][Dab][Dab][dF]L[Dab][Dab]T; lactam 5-C)	1 mg/L (≈ 0.798 µM)	4 mg/L (≈ 3.19 µM)	1 mg/L (≈ 0.798 µM)	2 mg/L (≈ 1.6 µM)	1 mg/L (≈ 0.798 µM)	2 mg/L (≈ 1.6 µM)	16 mg/L (≈ 12.8 µM)	1 mg/L (≈ 0.798 µM)	2 mg/L (≈ 1.6 µM)	1 mg/L (≈ 0.798 µM)	1 mg/L (≈ 0.798 µM)	1 mg/L (≈ 0.798 µM)	8.0	MIC P. aeruginosa (ATCC 27853) [2]: 2 mg/L (≈ 1.6 µM); MIC K. pneumoniae (ATCC 13883) [3]: 1 mg/L (≈ 0.798 µM); MIC A. baumannii (ATCC 19606) [4]: 1 mg/L (≈ 0.798 µM); MIC E. coli (ATCC 25922) (E. coli (ATCC 25922)): 2 mg/L (≈ 1.6 µM); MIC A. baumannii NRZ-00687 (A. baumannii NRZ-00687): 1 mg/L (≈ 0.798 µM); TC50, Day 2 [1]: 327 µM
